Measurements published in patent publication US20260151372A1, “AZOTOMYCIN PRODRUGS WITH PREFERENTIAL TUMOR DELIVERY” (The Johns Hopkins University, priority 2022, published 2026).
“Also recorded” adds a separate entry of the source.

Legend:
[1] = Metabolic stability in human liver microsomes; type: in vitro ADME; details: 1 μM prodrug, 0.2 mg/mL protein
Method: (§1) In vitro stability studies were done using CES1KO mouse plasma, human plasma, CES1-KO mouse liver, and human liver microsomes as previously described. For tissue homogenate stability studies, washed tissue was diluted 10-fold in 0.1 M potassium phosphate buffer and homogenized using probe sonication. Crude homogenate was then aliquoted to 1 mL, and spiked with 10 mM stock of the analyte in DMSO to achieve a 10 μM final concentration. The plasma stability of the prodrugs was determined by spiking the analyte in 1 mL of plasma. The plasma and tissues were incubated in an orbital shaker at 37° C. Stability in human liver microsomes was assessed at a final prodrug concentration of 1 μM with 0.2 mg/mL protein for microsomes. All the stability studies were conducted at predetermined times (0 and 60 min), where 50 μL aliquots of the mixture in triplicate were removed and the reaction was quenched by addition of 5 times the volume of ice-cold methanol spiked with the internal standard (losartan: 0.5 μM). The samples were vortex-mixed for 30 s and centrifuged at 10,000 g for 10 min at 4° C. An amount of 50 μL of the supernatant was diluted with 50 μL of water and transferred to a 250 μL polypropylene vial sealed with a Teflon cap. Prodrug disappearance was monitored over time using liquid chromatography and mass spectrometry (LC-MS).
(§2) Analyses were performed on a Dionex ultra high-performance LC system coupled with Q Exactive Focus orbitrap mass spectrometer (Thermo Fisher Scientific Inc., Waltham MA). Separation was achieved using Agilent Eclipse Plus column (100×2.1 mm i.d., maintained at 35° C.) packed with a 1.8 μm C18 stationary phase. The mobile phase consisted of 0.1% formic acid in water and 0.1% formic acid in acetonitrile, […] were operated at a flow rate of 0.3 mL/min for 7 min using gradient elution. The mass spectrometer controlled by Xcalibur software 4.0.27.13 (Thermo Scientific) was operated with a HESI ion source in positive ionization mode. Metabolites were identified in the full-scan mode (from m/z 50 to 1600) by comparing […] samples

[2] = Metabolic stability in CES1-KO mouse liver homogenate; type: in vitro ADME; details: tissue homogenate, 10 μM, 37° C.
Method: as §1, §2

[3] = Plasma stability in human plasma; type: in vitro ADME; details: 37° C.
Method: as §1, §2

[4] = Plasma stability in CES1KO mouse plasma; type: in vitro ADME; details: for Plasma Stability (% Remaining at 60 min) CES1^−/− Mouse Plasma: 37° C.; for stability in vitro (in words): mouse and human plasma and liver microsomes in vitro
Method: as §1, §2

[5] = Pharmacokinetics in C57BL/6 CES1^−/− mice bearing flank EL4 tumors; type: in vivo
Method: The pharmacokinetic study in C57BL/6 CES1 mice was conducted according to protocols reviewed and approved by the Johns Hopkins Institutional Animal Care and Use Committee in compliance with the Association for Assessment and Accreditation of Laboratory Animal Care International and the Public Health Service Policy on the Humane Care and Use of Laboratory Animals (PHS Policy). Briefly, naïve male and female C57BL/6 CES1^−/− mice (weighing between 25 and 30 g) 6-8 weeks of age were used. The animals were maintained on a 12 h light-dark cycle with ad libitum access to food and water. Tumors were grown via subcutaneous (SC) injection of EL4 cells (1×10^6 cells in 0.2 mL of phosphate-buffered saline) in one location on the flank of each mouse. […]
For quantifying intact analytes in the pharmacokinetic samples, plasma samples (25 μL) were processed using a single step protein precipitation method by addition of 125 μL of methanol containing internal standard (losartan: 0.5 μM), followed by vortex-mixing for 30 s and then centrifugation at 16,000 g for 5 min at 4° C. […]
The samples were subjected to dabsyl chloride derivatization and analyzed by LC-MS/MS, as described in Tenora et al., 2019. […]

SMILES	Liver Stability (% Remaining at 60 min) Human Liver Microsomes [1]	Liver Stability (% Remaining at 60 min) CES1^−/− Mouse Liver [2]	Plasma Stability (% Remaining at 60 min) Human Plasma [3]	Plasma Stability (% Remaining at 60 min) CES1^−/− Mouse Plasma [4]	stability in vitro (in words) [4]	preferential tumor delivery / tumor targeting (in words) [5]
CN(C)CC(=O)N[C@@H](CCC(=O)N[C@@H](CCC(=O)C=[N+]=[N-])C(=O)N[C@@H](CCC(=O)C=[N+]=[N-])C(=O)OC(C)(C)C)C(=O)OC(C)(C)C [Prodrug P3, tert-Butyl (6S,11S,14S)-6-(tert-butoxycarbonyl)-11,14-bis(4-diazo-3-oxobutyl)-2-methyl-4,9,12-trioxo-2,5,10,13-tetraazapentadecan-15-oate]	105 ± 2.53%	96.0 ± 4.36%	106 ± 2.40%	92.3 ± 0.882%	stable	exhibited preferential tumor delivery
CN(C)CC(=O)N[C@@H](Cc1c[nH]c2ccccc12)C(=O)N[C@@H](CCC(=O)N[C@@H](CCC(=O)C=[N+]=[N-])C(=O)N[C@@H](CCC(=O)C=[N+]=[N-])C(=O)OC(C)(C)C)C(=O)OC(C)(C)C [Prodrug P4, tert-Butyl (6S,9S,14S,17S)-6-((1H-indol-3-yl)methyl)-9-(tert-butoxycarbonyl)-14,17-bis(4-diazo-3-oxobutyl)-2-methyl-4,7,12,15-tetraoxo-2,5,8,13,16-pentaazaoctadecan-18-oate]	107 ± 1.63%	54.3 ± 1.45%	100 ± 0.00%	101 ± 4.67%	stable	exhibited preferential tumor delivery; also recorded: showed tumor targeting
CC(C)OC(=O)[C@H](CCC(=O)N[C@@H](CCC(=O)C=[N+]=[N-])C(=O)N[C@@H](CCC(=O)C=[N+]=[N-])C(=O)OC(C)C)NC(=O)CNC(=O)CN(C)C [Prodrug P17, Isopropyl (9S,14S,17S)-14,17-bis(4-diazo-3-oxobutyl)-9-(isopropoxycarbonyl)-2-methyl-4,7,12,15-tetraoxo-2,5,8,13,16-pentaazaoctadecan-18-oate]	98.0 ± 5.36%	0.964 ± 0.031%	93.7 ± 4.92%	94.0 ± 2.47%	–	–
CC(C)OC(=O)[C@H](CCC(=O)C=[N+]=[N-])NC(=O)[C@H](CCC(=O)C=[N+]=[N-])NC(=O)CC[C@H](NC(=O)[C@H](CCCNC(N)=O)NC(=O)[C@@H](N)C(C)C)C(=O)OC(C)C [Prodrug P18, Isopropyl (6S,9S,14S,17S)-1-amino-6-((S)-2-amino-3-methylbutanamido)-14,17-bis(4-diazo-3-oxobutyl)-9-(isopropoxycarbonyl)-1,7,12,15-tetraoxo-2,8,13,16-tetraazaoctadecan-18-oate]	84.9 ± 2.30%	0.11 ± 0.03%	105 ± 4.81%	105 ± 5%	–	–
CC(=O)NCCCC[C@H](NC(=O)C12CC3CC(CC(C3)C1)C2)C(=O)N[C@@H](CCC(=O)N[C@@H](CCC(=O)C=[N+]=[N-])C(=O)N[C@@H](CCC(=O)C=[N+]=[N-])C(=O)OC(C)C)C(=O)OC(C)C [Prodrug P19, Isopropyl (2S,5S,10S,13S)-13-((3S,5S,7S)-adamantane-1-carboxamido)-2,5-bis(4-diazo-3-oxobutyl)-10-(isopropoxycarbonyl)-4,7,12,19-tetraoxo-3,6,11,18-tetraazaicosanoate]	74.1 ± 2.10%	0.502 ± 0.103%	97.0 ± 4.11%	85.1 ± 0.64%	–	–
